In ChEMBL document CHEMBL5715954, “Silencing c-Myc translation as a therapeutic strategy through targeting PI3Kδ and CK1ε in hematological malignancies” (Blood, 2017):
Calls of active or inactive are those of the source.

Columns and labels:
[1] = biological target: Myc proto-oncogene protein (Homo sapiens) (UniProt P01106); test: Inhibition of c-Myc in human LY7 cells assessed as reduction in E2F1 expression at 3 uM incubated for 24 hrs in presence of bortezomib by Western blot analysis; format: cell-based
MZL = test: Induction of apoptosis in human MZL cells assessed as increase in cleaved-PARP expression at 5 uM measured after 24 hrs in presence of bortezomib by Western blot analysis; format: functional, cell-based
OCI-Ly10 = test: Induction of apoptosis in human LY10 cells assessed as increase in cleaved-PARP expression at 3 uM measured after 24 hrs in presence of bortezomib by Western blot analysis; format: functional, cell-based
mTORC1 (Homo sapiens) [2] = biological target: T1, mTORC1 (Homo sapiens) (UniProt P42345+Q8N122+Q9BVC4); test: Inhibition of mTORC1 in human LY10 cells assessed as reduction in 4E-BP1 phosphorylation at 3 uM measured after 24 hrs in presence of bortezomib by Western blot analysis; format: cell-based
mTORC1 (Homo sapiens) [3] = biological target: T1, mTORC1 (Homo sapiens); test: Inhibition of mTORC1 in human PF-382 cells assessed as reduction in 4E-BP1 phosphorylation at 5 uM measured after 24 hrs in presence of bortezomib by Western blot analysis; format: cell-based
mTORC1 (Homo sapiens) [4] = biological target: T1, mTORC1 (Homo sapiens); test: Inhibition of mTORC1 in human SLL cells assessed as reduction in c-Myc expression at 5 uM measured after 24 hrs in presence of bortezomib by Western blot analysis; format: cell-based
OCI-Ly7 [5] = test: Cytotoxicity against human OCILY7 cells transfected with empty vector assessed as reduction in cell viability at 7.5 to 25 uM incubated for 24 hrs by cell-titer glo assay; format: functional, cell-based; settings: dose 7.5-25 µM
OCILY7 = test: Inhibition of PI3Kdelta/CK1epsilon in human OCILY7 cells transfected with an empty vector assessed as reduction in c-Myc expression at 7.5 to 25 uM measured after 24 hrs by Western blot analysis; format: cell-based; settings: dose 7.5-25 µM
mTORC1 (Homo sapiens) [6] = biological target: T1, mTORC1 (Homo sapiens); test: Inhibition of mTORC1 in human OCILY7 cells transfected with c-Myc-expressing plasmid (M+) assessed as reduction in endogenous c-Myc expression at 3 to 5 uM incubated for 24 hrs in presence of carfilzomib by Western blot analysis; format: cell-based; settings: dose 3-5 µM
mTORC1 (Homo sapiens) [7] = biological target: T1, mTORC1 (Homo sapiens); test: Inhibition of mTORC1 in human NCI-H929 cells transduced with an eIF4E-overexpressing plasmid assessed as reduction in c-Myc expression at 5 uM incubated for 24 hrs in presence of carfilzomib by Western blot analysis; format: cell-based
mTORC1 (Homo sapiens) [8] = biological target: T1, mTORC1 (Homo sapiens); test: Inhibition of mTORC1 in human SLL cells assessed as reduction in 4E-BP1 phosphorylation at 5 uM measured after 24 hrs in presence of carfilzomib by Western blot analysis; format: cell-based
NCI-H929 = test: Cytotoxicity against human NCI-H929 cells transduced with an eIF4E-overexpressing plasmid assessed as reduction in cell viability at 5 uM incubated for 24 hrs in presence of carfilzomib by cell-titer glo assay; format: functional, cell-based
[9] = biological target: T2, Phosphatidylinositol 4,5-bisphosphate 3-kinase catalytic subunit delta isoform (Homo sapiens) (UniProt O00329); test: Inhibition of PI3Kdelta in human DB cells assessed as reduction in AKT phosphorylation at S473 residue at 1 uM measured after 4 hrs relative to control; format: cell-based
T2 sequence (whole entry): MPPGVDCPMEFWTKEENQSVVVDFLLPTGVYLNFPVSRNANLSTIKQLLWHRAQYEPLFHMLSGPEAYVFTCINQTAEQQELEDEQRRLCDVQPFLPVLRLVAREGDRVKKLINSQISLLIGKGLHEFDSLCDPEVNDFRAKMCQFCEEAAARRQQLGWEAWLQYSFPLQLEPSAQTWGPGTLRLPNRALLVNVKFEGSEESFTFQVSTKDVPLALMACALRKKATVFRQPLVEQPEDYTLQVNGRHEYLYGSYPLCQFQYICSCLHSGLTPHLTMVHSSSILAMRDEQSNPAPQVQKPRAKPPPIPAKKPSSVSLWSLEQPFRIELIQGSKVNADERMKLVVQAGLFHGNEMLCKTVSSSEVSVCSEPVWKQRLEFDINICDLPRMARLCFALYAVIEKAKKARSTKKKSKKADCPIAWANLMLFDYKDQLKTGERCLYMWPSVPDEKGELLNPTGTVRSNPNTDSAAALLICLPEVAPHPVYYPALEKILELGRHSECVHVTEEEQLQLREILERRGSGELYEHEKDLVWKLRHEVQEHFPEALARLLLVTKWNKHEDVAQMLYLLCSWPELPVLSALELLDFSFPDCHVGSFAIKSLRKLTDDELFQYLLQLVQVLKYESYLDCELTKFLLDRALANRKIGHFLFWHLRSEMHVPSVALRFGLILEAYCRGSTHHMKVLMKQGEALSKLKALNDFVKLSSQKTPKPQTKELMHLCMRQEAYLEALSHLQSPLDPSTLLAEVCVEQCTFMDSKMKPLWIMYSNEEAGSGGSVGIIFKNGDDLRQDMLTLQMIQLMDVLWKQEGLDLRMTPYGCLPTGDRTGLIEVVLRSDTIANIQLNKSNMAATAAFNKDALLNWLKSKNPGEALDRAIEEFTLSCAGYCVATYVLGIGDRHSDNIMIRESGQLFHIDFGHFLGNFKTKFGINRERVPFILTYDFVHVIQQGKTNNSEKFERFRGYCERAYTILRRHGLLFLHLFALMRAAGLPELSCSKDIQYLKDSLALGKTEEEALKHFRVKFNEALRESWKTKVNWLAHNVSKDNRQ

OCI-Ly7 [10] = test: Cytotoxicity against human OCILY7 cells transfected with c-Myc-expressing plasmid (M+) assessed as reduction in cell viability at 7.5 to 25 uM incubated for 24 hrs by cell-titer glo assay; format: functional, cell-based; settings: dose 7.5-25 µM
mTORC1 (Homo sapiens) [11] = biological target: T1, mTORC1 (Homo sapiens); test: Inhibition of mTORC1 in human OCILY7 cells transfected with c-myc-5'-UTR-luciferase construct assessed as reduction in c-myc translation at 3 to 5 uM incubated for 24 hrs in presence of carfilzomib by luciferase reporter gene assay; format: cell-based; settings: dose 3-5 µM
mTORC1 (Homo sapiens) [12] = biological target: T1, mTORC1 (Homo sapiens); test: Inhibition of mTORC1 in human LY7 cells assessed as reduction in c-Myc mRNA expression at 3 uM measured after 24 hrs in presence of carfilzomib; format: cell-based
[13] = biological target: T2, Phosphatidylinositol 4,5-bisphosphate 3-kinase catalytic subunit delta isoform (Homo sapiens); test: Inhibition of PI3Kdelta in human HL-60 cells assessed as reduction in AKT phosphorylation at S473 residue measured after 4 hrs; format: cell-based; settings: dose 10-10000 nM
OCI-Ly7 [14] = test: Cytotoxicity against human OCILY7 cells transfected with empty vector assessed as reduction in cell viability at 3 to 5 uM incubated for 24 hrs in presence of carfilzomib by cell-titer glo assay; format: functional, cell-based; settings: dose 3-5 µM
[15] = biological target: Casein kinase I isoform epsilon (Homo sapiens, UniProt P49674); test: Inhibition of CK1epsilon in human LY7 cells assessed as reduction in CK1epsilon autophosphorylation at 10 to 25 uM preincubated for 1 hr followed by addition of PP2A inhibitor calyculin A and measured after 15 to 60 mins by Western blot analysis; format: cell-based; settings: dose 10-25 µM, time lower 75.0 min, time upper […]
[16] = Inhibition of PI3Kdelta/CK1epsilon in human OCILY7 cells transfected with c-myc-5'-UTR-luciferase construct assessed as reduction in c-myc translation at 15 uM incubated for 24 hrs by luciferase reporter gene assay relative to control; settings: OCI-Ly7
[17] = biological target: T2, Phosphatidylinositol 4,5-bisphosphate 3-kinase catalytic subunit delta isoform (Homo sapiens); test: Inhibition of PI3Kdelta in human MOLT-4 cells assessed as reduction in AKT phosphorylation at S473 residue measured after 4 hrs; format: cell-based; settings: dose 10-10000 nM

T1 sequence (Q8N122 whole entry, looked up, other chains not shown): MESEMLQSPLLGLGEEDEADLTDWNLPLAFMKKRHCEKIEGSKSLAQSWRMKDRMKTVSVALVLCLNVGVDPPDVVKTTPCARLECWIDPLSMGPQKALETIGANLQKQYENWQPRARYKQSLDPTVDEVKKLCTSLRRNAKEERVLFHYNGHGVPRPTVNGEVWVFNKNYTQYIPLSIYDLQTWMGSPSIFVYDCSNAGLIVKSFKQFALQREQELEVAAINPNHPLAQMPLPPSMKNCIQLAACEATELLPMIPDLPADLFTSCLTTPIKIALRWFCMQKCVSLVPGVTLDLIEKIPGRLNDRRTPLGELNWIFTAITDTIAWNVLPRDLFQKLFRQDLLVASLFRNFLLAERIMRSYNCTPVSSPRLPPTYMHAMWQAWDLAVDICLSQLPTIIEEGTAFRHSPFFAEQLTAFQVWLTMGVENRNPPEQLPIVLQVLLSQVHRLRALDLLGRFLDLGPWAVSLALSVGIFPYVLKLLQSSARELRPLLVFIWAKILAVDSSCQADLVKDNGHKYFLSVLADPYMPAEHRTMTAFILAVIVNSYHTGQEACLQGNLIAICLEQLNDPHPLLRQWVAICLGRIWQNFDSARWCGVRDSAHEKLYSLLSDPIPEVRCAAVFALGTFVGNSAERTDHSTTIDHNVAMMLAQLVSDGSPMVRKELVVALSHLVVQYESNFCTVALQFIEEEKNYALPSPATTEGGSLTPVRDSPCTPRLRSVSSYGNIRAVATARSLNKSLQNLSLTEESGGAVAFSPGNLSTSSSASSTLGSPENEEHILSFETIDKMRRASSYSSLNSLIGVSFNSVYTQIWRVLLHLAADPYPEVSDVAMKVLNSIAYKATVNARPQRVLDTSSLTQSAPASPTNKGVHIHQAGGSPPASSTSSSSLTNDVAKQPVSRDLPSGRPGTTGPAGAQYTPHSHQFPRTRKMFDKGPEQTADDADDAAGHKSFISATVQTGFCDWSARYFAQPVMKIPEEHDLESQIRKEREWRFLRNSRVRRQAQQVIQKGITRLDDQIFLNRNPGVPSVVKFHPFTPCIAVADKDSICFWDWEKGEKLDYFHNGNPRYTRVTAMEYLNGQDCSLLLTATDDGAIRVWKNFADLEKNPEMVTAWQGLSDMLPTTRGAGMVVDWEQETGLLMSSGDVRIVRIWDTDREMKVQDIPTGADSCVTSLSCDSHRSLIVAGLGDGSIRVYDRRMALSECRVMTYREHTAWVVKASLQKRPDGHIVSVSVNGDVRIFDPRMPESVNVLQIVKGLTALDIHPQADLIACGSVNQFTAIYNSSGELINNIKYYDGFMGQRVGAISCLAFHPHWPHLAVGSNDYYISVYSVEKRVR
T1 sequence (Q9BVC4 whole entry, looked up, other chains not shown): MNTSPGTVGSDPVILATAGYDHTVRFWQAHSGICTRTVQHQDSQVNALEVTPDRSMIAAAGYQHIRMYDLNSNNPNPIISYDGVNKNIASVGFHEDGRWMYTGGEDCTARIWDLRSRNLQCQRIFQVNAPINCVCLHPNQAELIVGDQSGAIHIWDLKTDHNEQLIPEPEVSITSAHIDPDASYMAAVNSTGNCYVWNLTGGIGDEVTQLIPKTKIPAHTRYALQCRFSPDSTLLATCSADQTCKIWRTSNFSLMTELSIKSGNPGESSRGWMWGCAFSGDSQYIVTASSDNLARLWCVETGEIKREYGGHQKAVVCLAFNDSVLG
Sequence of Casein kinase I isoform epsilon (P49674 whole entry, looked up, canonical isoform): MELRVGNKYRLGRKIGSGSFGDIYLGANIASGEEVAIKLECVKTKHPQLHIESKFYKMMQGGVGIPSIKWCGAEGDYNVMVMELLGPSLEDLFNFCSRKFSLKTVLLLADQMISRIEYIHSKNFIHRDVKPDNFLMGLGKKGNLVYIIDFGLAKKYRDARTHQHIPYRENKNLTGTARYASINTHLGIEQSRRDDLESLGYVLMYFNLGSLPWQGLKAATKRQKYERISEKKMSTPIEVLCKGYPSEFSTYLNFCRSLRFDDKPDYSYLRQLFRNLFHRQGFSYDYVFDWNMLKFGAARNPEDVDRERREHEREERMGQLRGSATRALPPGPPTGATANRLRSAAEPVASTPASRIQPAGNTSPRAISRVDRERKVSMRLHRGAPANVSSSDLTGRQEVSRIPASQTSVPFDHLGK
Sequence of Myc proto-oncogene protein (Homo sapiens) (P01106 whole entry): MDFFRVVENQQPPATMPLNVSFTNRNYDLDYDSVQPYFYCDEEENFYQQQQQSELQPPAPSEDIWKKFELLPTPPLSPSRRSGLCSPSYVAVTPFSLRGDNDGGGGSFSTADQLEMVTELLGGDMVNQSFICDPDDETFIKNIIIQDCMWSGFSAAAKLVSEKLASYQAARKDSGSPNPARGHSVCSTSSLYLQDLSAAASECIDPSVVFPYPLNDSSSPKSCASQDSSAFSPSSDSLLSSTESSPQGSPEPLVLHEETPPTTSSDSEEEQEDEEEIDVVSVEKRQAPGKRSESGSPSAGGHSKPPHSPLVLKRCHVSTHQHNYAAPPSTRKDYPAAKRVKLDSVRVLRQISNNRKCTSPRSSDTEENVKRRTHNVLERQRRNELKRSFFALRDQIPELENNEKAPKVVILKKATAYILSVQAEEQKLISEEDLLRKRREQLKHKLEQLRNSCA

CC[C@H](Nc1ncnc2[nH]cnc12)c1nc2cccc(F)c2c(=O)n1-c1ccccc1
active: Activity (MZL) | Activity (OCI-Ly10)
inactive: inhibition [1] | inhibition (mTORC1 (Homo sapiens) [2]) | inhibition (mTORC1 (Homo sapiens) [3]) | inhibition (mTORC1 (Homo sapiens) [4])

CC(C)Oc1ccc(-c2nn([C@@H](C)c3oc4ccc(F)cc4c(=O)c3-c3cccc(F)c3)c3ncnc(N)c23)cc1F [UMBRALISIB]
43%: inhibition [9]
inactive: inhibition (mTORC1 (Homo sapiens) [6]) | inhibition (mTORC1 (Homo sapiens) [7]) | Activity (NCI-H929) | Activity (OCI-Ly7 [10]) | inhibition (mTORC1 (Homo sapiens) [12])
active: Activity (OCI-Ly7 [5]) | inhibition (OCILY7) | inhibition (mTORC1 (Homo sapiens) [8]) | inhibition (mTORC1 (Homo sapiens) [11]) | inhibition [13] Dose-Dependent Effect | Activity (OCI-Ly7 [14]) | inhibition [15] | inhibition [17] Dose-Dependent Effect
> 50%: inhibition at 15 µM [16]
